Data on 23 compounds can be found in patent publication US20250034159A1, “INHIBITORS OF EPIDERMAL GROWTH FACTOR RECEPTOR” (ORIC Pharmaceuticals, Inc., priority 2021, published 2025).

Where two headings read alike, the source gives them in different places.

Assay [1] has as its target recombinant human EGFR exon 19 deletion/C797S double mutant protein (Homo sapiens (Human), UniProt P00533, C797S/DEL746-750). The assay can be described thus: Biological Activity Assay C: biochemical assay against EGFR exon 19 deletion/C797S protein (EGFR d19/CS). The procedure, abridged: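 Compounds were tested as 16-point serial dilutions (final DMSO 2.5%) with a Phosphosens peptide sensor/ATP working solution (40 uM/4 mM). The signal was read kinetically over 90 cycles at 120 s intervals. IC50s came from 4-parameter fits of per-well slopes.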

The subject of a further assay is BaF3_EGFR LR/CS cells. The assay can be described thus: Biological Activity Assay D: BaF3 cell proliferation assay, EGFR L858R/C797S mutant (BaF3 LR/CS). The following applies: Ba/F3 EGFR, read-out: BaF3 LR/CS IC50. The class given is cell-based.
Another assay has as its system BaF3_EGFR d19/CS cells. As to the kind of experiment: Biological Activity Assay D: BaF3 cell proliferation assay, EGFR exon 19 deletion/C797S (BaF3 d19/CS). The assay is classed as cell-based. Conditions: Ba/F3 EGFR, read-out: BaF3 d19/CS IC50.
For the next assay, the system named is Ba/F3_EGFR WT cells. As to the kind of experiment: Biological Activity Assay D: BaF3 cell proliferation assay, EGFR wild-type (BaF3 WT). The assay is classed as cell-based. Conditions: Ba/F3 EGFR, read-out: BaF3 WT IC50.
[2] abbreviates: BaF3_EGFR LR/CS cells, ~72 hours, CellTiter-Glo.
Where [3] appears, read: BaF3_EGFR d19/CS cells, ~72 hours, CellTiter-Glo.
[4] abbreviates: Ba/F3_EGFR WT cells, ~72 hours, CellTiter-Glo.

recombinant human EGFR exon 19 deletion/C797S double mutant protein, sequence (P00533 other isoform, or with tags, fused parts or gaps C797S/del 1-668/del 746-750 limits assumed): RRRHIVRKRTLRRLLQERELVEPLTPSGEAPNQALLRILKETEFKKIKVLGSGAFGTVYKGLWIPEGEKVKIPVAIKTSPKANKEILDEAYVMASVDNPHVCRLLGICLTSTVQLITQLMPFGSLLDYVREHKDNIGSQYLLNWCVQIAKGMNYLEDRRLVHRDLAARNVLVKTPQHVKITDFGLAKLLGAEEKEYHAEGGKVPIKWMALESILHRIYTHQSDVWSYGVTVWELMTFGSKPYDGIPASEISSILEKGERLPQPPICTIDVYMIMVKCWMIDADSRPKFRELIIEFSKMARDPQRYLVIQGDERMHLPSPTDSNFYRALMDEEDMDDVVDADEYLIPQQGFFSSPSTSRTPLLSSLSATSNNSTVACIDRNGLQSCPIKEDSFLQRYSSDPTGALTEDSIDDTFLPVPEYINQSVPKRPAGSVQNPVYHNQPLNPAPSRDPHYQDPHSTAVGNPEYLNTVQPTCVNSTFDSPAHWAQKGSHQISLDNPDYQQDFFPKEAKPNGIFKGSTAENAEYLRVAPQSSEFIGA

For `Cc1ncc(-c2cc3c(-c4cn(C5CS(=O)(=O)C5)nc4-c4ccc(F)cc4)ncnc3o2)s1` [Example 224, 3-{3-(4-fluorophenyl)-4-[6-(2-methyl-1,3-thiazol-5-yl)furo[2,3-d]pyrimidin-4-yl]-1H-pyrazol-1-yl}-16-thietane-1,1-dione], the IC50 in assay [1] came out at 0.14 nM; in the assay on BaF3_EGFR LR/CS cells (72 h), 26.6 nM; in the assay on BaF3_EGFR d19/CS cells (72 h), 37.7 nM; in the assay on Ba/F3_EGFR WT cells (72 h) it was 1450 nM.
Consider `Cc1nn(C)c(C)c1-c1cc2c(-c3cn(CC(C)(C)O)nc3-c3ccc(F)cc3)ncnc2o1` [Example 252, 1-{3-(4-fluorophenyl)-4-[6-(1,3,5-trimethyl-1H-pyrazol-4-yl)furo[2,3-d]pyrimidin-4-yl]-1H-pyrazol-1-yl}-2-methylpropan-2-ol], for which the IC50 in assay [1] was found to be 0.09 nM; in the assay on BaF3_EGFR LR/CS cells (setting [2]), 8.87 nM; in the assay with BaF3_EGFR d19/CS cells (setting [3]), 21.9 nM; in the assay with Ba/F3_EGFR WT cells (setting [4]), 630 nM.
In the case of `CC1(C)CC(n2cc(-c3ncnc4oc(-c5ccccc5)cc34)c(-c3ccc(F)cc3)n2)CO1` (racemic) [Example 227, 4-[1-(5,5-dimethyloxolan-3-yl)-3-(4-fluorophenyl)-1H-pyrazol-4-yl]-6-phenylfuro[2,3-d]pyrimidine], the IC50 is 0.63 nM in assay [1], 53.3 nM in the assay with BaF3_EGFR LR/CS cells (setting [2]), 42.3 nM in the assay with BaF3_EGFR d19/CS cells (setting [3]) and 2670 nM in the assay on Ba/F3_EGFR WT cells (setting [4]).
For `N#CCCc1cccc(-c2cc3c(-c4cn(C5CS(=O)(=O)C5)nc4-c4ccc(F)cc4)ncnc3o2)c1` [Example 232, 3-(3-{4-[1-(1,1-dioxo-1λ6-thietan-3-yl)-3-(4-fluorophenyl)-1H-pyrazol-4-yl]furo[2,3-d]pyrimidin-6-yl}phenyl)propanenitrile], the IC50 amounted to 0.23 nM in assay [1], 9.42 nM in the assay on BaF3_EGFR LR/CS cells (setting [2]), 9.99 nM in the assay with BaF3_EGFR d19/CS cells (setting [3]) and 301 nM in the assay on Ba/F3_EGFR WT cells (setting [4]).
In the case of `CC1(C)C[C@@H](n2cc(-c3ncnc4oc(-c5ccccc5)cc34)c(-c3ccc(F)cc3)n2)CO1` (single isomer, unassigned) [Example 237], the IC50 is 0.74 nM in assay [1], 35 nM in the assay with BaF3_EGFR LR/CS cells (setting [2]), 73.9 nM in the assay on BaF3_EGFR d19/CS cells (setting [3]) and 2500 nM in the assay on Ba/F3_EGFR WT cells (setting [4]).
The corresponding values for `Fc1ccc(-c2nn([C@@H]3CCCCC3(F)F)cc2-c2ncnc3oc(-c4ccccc4)cc23)cc1` (single isomer, unassigned) [Example 230] are 5.1 nM, 88.5 nM, 287 nM and 2370 nM.
The corresponding values for `Cn1cnc(-c2cc3c(-c4cn(CC(F)(F)CO)nc4-c4ccc(F)cc4)ncnc3o2)c1` [Example 266, 2,2-difluoro-3-{3-(4-fluorophenyl)-4-[6-(1-methyl-1H-imidazol-4-yl)furo[2,3-d]pyrimidin-4-yl]-1H-pyrazol-1-yl}propan-1-ol] are 0.094 nM, 2.13 nM, 2.5 nM and 135 nM.
For `Fc1ccc(-c2nn(C3CCC(F)(F)CC3)cc2-c2ncnc3oc(-c4ccccc4)cc23)cc1` [Example 142, 4-[1-(4,4-difluorocyclohexyl)-3-(4-fluorophenyl)-1H-pyrazol-4-yl]-6-phenylfuro[2,3-d]pyrimidine], the IC50 is 5.19 nM in assay [1], 313 nM with BaF3_EGFR LR/CS cells (setting [2]), 398 nM in the assay with BaF3_EGFR d19/CS cells (setting [3]) and 6070 nM in the assay with Ba/F3_EGFR WT cells (setting [4]).
Turning to `CC(=O)N1CCC=C(c2cc3c(-c4cn(CC(C)(C)O)nc4-c4ccc(F)cc4)ncnc3o2)C1` [Example 208, 1-[5-{4-[3-(4-fluorophenyl)-1-(2-hydroxy-2-methylpropyl)-1H-pyrazol-4-yl]furo[2,3-d]pyrimidin-6-yl}-3,6-dihydropyridin-1 (2H)-yl]ethan-1-one], the IC50 in assay [1] amounted to 0.4 nM; in the assay on BaF3_EGFR LR/CS cells (setting [2]) it was 155 nM; in the assay with BaF3_EGFR d19/CS cells (setting [3]) it was 95.7 nM; in the assay on Ba/F3_EGFR WT cells (setting [4]), 1680 nM.
The matching figures for `O=S1(=O)CCC[C@@H](Cn2cc(-c3ncnc4oc(-c5ccccc5)cc34)c(-c3ccc(F)cc3)n2)C1` (single isomer, unassigned) [Example 126]: 0.18 nM, 14.6 nM, 58.2 nM and 720 nM.
The matching figures for `CC1(C)C[C@@H](n2cc(-c3ncnc4oc(-c5ccccc5)cc34)c(-c3ccc(F)cc3)n2)CCO1` (single isomer, unassigned) [Example 226]: 1.86 nM, 236 nM, 413 nM and 10200 nM.
The corresponding values for `NC(=O)c1ccccc1-c1cc2c(-c3cn(C4CS(=O)(=O)C4)nc3-c3ccc(F)cc3)ncnc2o1` [Example 183, 2-{4-[1-(1,1-dioxo-1λ6-thietan-3-yl)-3-(4-fluorophenyl)-1H-pyrazol-4-yl]furo[2,3-d]pyrimidin-6-yl}benzamide] are 0.14 nM, 145 nM, 146 nM and 5420 nM.
Regarding `Cn1cnc(-c2cc3c(-c4cn(CCC(F)F)nc4-c4ccc(F)cc4)ncnc3o2)c1` [Example 263, 4-[1-(3,3-difluoropropyl)-3-(4-fluorophenyl)-1H-pyrazol-4-yl]-6-(1-methyl-1H-imidazol-4-yl)furo[2,3-d]pyrimidine], the IC50 in assay [1] was found to be 0.153 nM; with BaF3_EGFR LR/CS cells (setting [2]), 2.36 nM; in the assay with BaF3_EGFR d19/CS cells (setting [3]), 6.17 nM; with Ba/F3_EGFR WT cells (setting [4]) it was 235 nM.
Regarding `Fc1ccc(-c2nn([C@H]3CCCCC3(F)F)cc2-c2ncnc3oc(-c4ccccc4)cc23)cc1` (single isomer, unassigned) [Example 233], the IC50 in assay [1] stood at 4.09 nM; with BaF3_EGFR LR/CS cells (setting [2]) it was 228 nM; in the assay on BaF3_EGFR d19/CS cells (setting [3]), 414 nM; in the assay on Ba/F3_EGFR WT cells (setting [4]), 6040 nM.
The matching figures for `Cc1nn(C)cc1-c1cc2c(-c3cn(CC(C)(C)O)nc3-c3ccc(F)cc3)ncnc2o1` [Example 251, 1-{4-[6-(1,3-dimethyl-1H-pyrazol-4-yl)furo[2,3-d]pyrimidin-4-yl]-3-(4-fluorophenyl)-1H-pyrazol-1-yl}-2-methylpropan-2-ol]: 0.2 nM, 8.08 nM, 12.8 nM and 745 nM.
As to `O=C1CCCCN1c1cc2c(-c3cn(C4CS(=O)(=O)C4)nc3-c3ccc(F)cc3)ncnc2o1` [Example 160, 3-{3-(4-fluorophenyl)-4-[6-(2-oxopiperidin-1-yl)furo[2,3-d]pyrimidin-4-yl]-1H-pyrazol-1-yl}-1λ6-thietane-1,1-dione], the IC50 in assay [1] was determined as 4.99 nM; in the assay with BaF3_EGFR LR/CS cells (setting [2]), 751 nM; in the assay on BaF3_EGFR d19/CS cells (setting [3]), 359 nM; with Ba/F3_EGFR WT cells (setting [4]), 14200 nM.
The corresponding values for `O=S1(=O)CC(n2cc(-c3ncnc4oc(-c5ccsn5)cc34)c(-c3ccc(F)cc3)n2)C1` [Example 235, 3-{3-(4-fluorophenyl)-4-[6-(1,2-thiazol-3-yl)furo[2,3-d]pyrimidin-4-yl]-1H-pyrazol-1-yl}-1λ6-thietane-1,1-dione] are 0.24 nM, 41.8 nM, 41.3 nM and 837 nM.
As for `Cc1cccc(-c2cc3c(-c4cn(C5CS(=O)(=O)C5)nc4-c4ccc(F)cc4)ncnc3o2)n1` [Example 253, 3-{3-(4-fluorophenyl)-4-[6-(6-methylpyridin-2-yl)furo[2,3-d]pyrimidin-4-yl]-1H-pyrazol-1-yl}-16-thietane-1,1-dione], the IC50 in assay [1] is 0.2 nM; in the assay with BaF3_EGFR LR/CS cells (72 h), 51.6 nM; with BaF3_EGFR d19/CS cells (72 h), 87.7 nM; with Ba/F3_EGFR WT cells (72 h), 7740 nM.
Take `O[C@H]1C[C@@H](n2cc(-c3ncnc4oc(-c5ccccc5)cc34)c(-c3ccc(F)cc3)n2)C1` [Example 120, (1s,3s)-3-(3-(4-Fluorophenyl)-4-(6-phenylfuro[2,3-d]pyrimidin-4-yl)-1H-pyrazol-1-yl)cyclobutan-1-ol]: the IC50 amounted to 0.12 nM in assay [1], 8.82 nM in the assay with BaF3_EGFR LR/CS cells (setting [2]), 17.1 nM in the assay with BaF3_EGFR d19/CS cells (setting [3]) and 633 nM in the assay with Ba/F3_EGFR WT cells (setting [4]).
As to `O=S1(=O)CCC[C@H](Cn2cc(-c3ncnc4oc(-c5ccccc5)cc34)c(-c3ccc(F)cc3)n2)C1` (single isomer, unassigned) [Example 125], the IC50 in assay [1] was determined as 0.21 nM; with BaF3_EGFR LR/CS cells (setting [2]) it was 11.8 nM; in the assay with BaF3_EGFR d19/CS cells (setting [3]), 52.1 nM; in the assay with Ba/F3_EGFR WT cells (setting [4]), 741 nM.
The corresponding values for `Cn1cnc(-c2cc3c(-c4cn([C@H]5C[C@@H](S(C)(=O)=O)C5)nc4-c4ccc(F)cc4)ncnc3o2)c1` [Example 259, 4-{3-(4-fluorophenyl)-1-[(1s,3s)-3-(methanesulfonyl)cyclobutyl]-1H-pyrazol-4-yl}-6-(1-methyl-1H-imidazol-4-yl)furo[2,3-d]pyrimidine] are 0.1 nM, 4.44 nM, 14.4 nM and 498 nM.
The corresponding values for `CC1(C)C[C@H](n2cc(-c3ncnc4oc(-c5ccccc5)cc34)c(-c3ccc(F)cc3)n2)CCO1` (single isomer, unassigned) [Example 225] are 4.88 nM, 502 nM, 886 nM and 18900 nM.
In the case of `O=S1(=O)CC(n2cc(-c3ncnc4oc(-c5ccccn5)cc34)c(-c3ccc(F)cc3)n2)C1` [Example 173, 3-{3-(4-fluorophenyl)-4-[6-(pyridin-2-yl)furo[2,3-d]pyrimidin-4-yl]-1H-pyrazol-1-yl}-1λ6-thietane-1,1-dione], the IC50 turned out to be 0.11 nM in assay [1], 17.6 nM with BaF3_EGFR LR/CS cells (setting [2]), 28.9 nM in the assay on BaF3_EGFR d19/CS cells (setting [3]) and 800 nM with Ba/F3_EGFR WT cells (setting [4]).
